# What was measured:
# cathepsin B = assay: Cathepsin B activity assay in tumor homogenate (Z-Arg-Arg-AMC); type: in vivo; details: HT-29 tumors; increased levels of estrogen, s.c. pellets
# Description: Cathepsin B activity assay was performed as follows: proteins were extracted by homogenization in cathepsin B buffer in ratio of 1 ml of buffer per 100 mg of tissue. The test utilized the ability of cathepsin B to digest the synthetic substrate Z-Arg-Arg-AMC. Released AMC was determined fluorometrically at excitation wavelength 390 nm and emission wave-length 460 nm. The activity of cathepsin B was quantified versus an AMC standard curve.
# [1] = test system: HT-29 human CRC xenograft tumor model; assay: Effect of circulating estrogen on tumor growth; type: in vivo, female CD nu/nu mice; details: increased levels of estrogen, s.c. controlled release pellets 0.17, 0.36, 0.72 mg/60 days
# ERβ = molecular target: T1, ERβ (Homo sapiens, UniProt Q92731); assay: ERβ expression (western blot) and activation (RT-PCR of E-Cadherin, Id-2) in xenograft tumors; type: in vivo; details: HT-29 and H460 xenograft tumors, E2 supplements
# T1 construct: proteins were extracted by homogenization in RIPA buffer; from tissue; host or cells: HT-29 and H460 human xenograft tumours in female CD nu/nu mice
# Description: ERα, ERβ, E-Cadherin and Id-2 gene expression was determined by RT-PCR, relating their RNA expression to that of GAPDH gene. Total RNA extracted from tumors was reversely transcribed by Thermoscript RT-PCR System (INVITROGEN). The cDNA generated was used as template for PCR with primers specific for ERα and β, E-Cadherin and Id-2.
# Western blot analysis was performed as follows: proteins were extracted by homogenization in RIPA buffer and their content was determined by Bio-Rad Protein Assay. Protein aliquots were separated by size on 10% SDS-PAGE and transferred to nitrocellulose membrane. Immunodetection was performed using: anti-ERa Polyclonal Ab (HC-20, Santa Cruz Biotechnologies), […] Polyclonal Ab (06-629, Upstate Biotechnologies), anti-α-Actin (Sigma), and anti-α-Tubulin (Santa CruzBiotechnologies).
# The effect of estradiol on ERβ expression in HT-29 human CRC and H460 human NSCLC was analyzed by western blot (FIGS. 9 and 10, respectively.).
# The effect of estradiol on ERβ activation in HT-29 human CRC and H460 human NSCLC cells was analyzed by RT-PCR, where increased expression of the E-Cadherin gene (in HT-29 cells) and increased expression of the Id-2 gene (in H460 cells) is indicative of ERP activation (FIGS. 11 and 12, respectively.).
# NSCLC [2] = assay: Composite analysis of two phase III studies (STELLAR 3 and STELLAR 4): survival by sex and age, PPX vs control; type: in vivo, human; details: for HR: PPX vs CONTROL
# Description: Two phase III studies, enrolling a total of 781 patients with NSCLC and a poor performance status (PS2), were conducted. […] In order to study the effect of sex and estrogen on survival among the various treatment groups, the results from both phase III clinical trials were combined and a composite analysis performed.
# Functional menopausal status was assigned based on age and pretreatment estradiol levels, when available. The study was a composite of results from both clinical studies.
# NSCLC [3] = assay: Phase III study (STELLAR 3): CT-2103/PPX + carboplatin vs paclitaxel + carboplatin, overall survival by estrogen level; type: in vivo, human; details: CT-2103 210 mg/m^2 + carboplatin AUC 6 vs paclitaxel 225 mg/m^2 + carboplatin AUC 6
# From the text: The experiments and results presented in example 1 describe the correlation between estrogen levels and treatment with CT-2103 versus paclitaxel, as measured by overall survival (OS). The data depicted in FIGS. 1 and 2 were derived from a multinational, phase III, open-label study. […] Randomization was stratified to minimize potential imbalances between the 2 treatment arms. After they were selected for the study, patients were stratified by disease stage (IV vs other), gender, geographic location (US vs. Western Europe and Canada vs. rest of the world), and history of brain metastases (yes vs. no).
# From the initial sample set, a subset consisting of either high or low estrogen women was analyzed. […] Estrogen levels in women were determined by a competitive immunoassay (e.g., DPC […] 2000 Analyzer, NY; DPC […] Analyzer, Ireland). […]
# Patients received CT-2103/carboplatin or paclitaxel/carboplatin, by intravenous infusion, on day 1 of each 21-day cycle for a total of 6 cycles. Toxicities were evaluated at each patient visit. Hematology, clinical chemistry, and coagulation parameters were evaluated before and during the study period. […] The efficacy and safety outcomes of this study were monitored by an independent Data Monitoring Committee (DMC).
# Efficacy of the treatments was determined by evaluation of tumor burden according to RECIST. […]
# [4] = test system: NCI-H460 human lung carcinoma; details: H460 tumor cells
# [5] = test system: HT-29 human CRC xenograft tumor model; details: associated with increased cathepsin B activity (E2 supplemented)
# Description: Antitumor activity parameters were determined as follows: • 1. Tumor weight inhibition % (TWI %) equals 100 minus (TW of treated divided by TW of control) times 100, which was evaluated at day 60 from pellet implant. • 2. Tumor growth delay (TGD): TGD equals TG Treated minus TG Control, where TG is the mean time, in days, for the tumor to reach a weight of 1 gram (g). • 3. Log cell kill (LCK) was calculated by the formula: LCK equals ((TGD 1 g) divided by 3.32) times DT, where DT is the time (days) necessary for the tumor to double in volume, in control and experimental groups.
# Statistical analyses were performed using one-way ANOVA Bonferroni post test.
# T1 sequence (Q92731 whole entry): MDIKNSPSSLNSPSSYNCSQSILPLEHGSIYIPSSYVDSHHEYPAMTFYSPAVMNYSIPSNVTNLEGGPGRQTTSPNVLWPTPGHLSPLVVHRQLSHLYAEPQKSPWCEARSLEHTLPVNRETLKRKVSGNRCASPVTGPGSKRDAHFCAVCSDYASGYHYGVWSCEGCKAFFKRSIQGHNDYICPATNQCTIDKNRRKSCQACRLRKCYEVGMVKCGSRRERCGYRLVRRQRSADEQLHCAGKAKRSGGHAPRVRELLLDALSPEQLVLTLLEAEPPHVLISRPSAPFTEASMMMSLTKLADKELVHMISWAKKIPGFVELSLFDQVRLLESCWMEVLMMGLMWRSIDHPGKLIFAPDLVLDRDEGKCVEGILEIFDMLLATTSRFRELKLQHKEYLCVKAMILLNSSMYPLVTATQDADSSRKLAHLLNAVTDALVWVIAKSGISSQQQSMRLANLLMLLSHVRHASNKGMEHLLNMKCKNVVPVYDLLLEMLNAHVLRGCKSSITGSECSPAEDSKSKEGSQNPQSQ
Compound,cathepsin B activity (cathepsin B),tumor weight [1],ERβ activation and/or expression (ERβ),OS (NSCLC [2]; FEMALE) [days],HR (NSCLC [2]; FEMALE),OS (NSCLC [2]; MALE) [days],HR (NSCLC [2]; MALE),"OS (NSCLC [2]; women under 55 years of age, PPX vs control arm)",overall survival (OS) (NSCLC [3]; women with postmenopausal (low) estrogen levels),overall survival (OS) (NSCLC [3]; women with premenopausal (high) estrogen levels),mechanism of uptake of intact PPX into the cellular compartment [4],PPX antitumor activity [5]
"C[C@]12CC[C@@H]3c4ccc(O)cc4CC[C@H]3[C@@H]1CC[C@@H]2O [17β estradiol, 17β Estradiol]",increases,increases,induce ERβ activation and/or expression,,,,,,,,,
paclitaxel poliglumex [PPX],,,,285,0.70,220,1.05,prolonged,no apparent effect on survival,improved outcome,"energy-dependent endocytosis, in a dose- and time-dependent manner",enhanced

# — patent US20070167349A1, “Estrogen cancer therapy” (Cell Therapeutics, Inc., priority 2005, published 2007)
